In patent US20080085889A1, “Amidomethyl-Substituted 1-(Carboxyalkyl) Cyclopentyl-Carbonylamino-Benzazepine-N-Acetic Acid Compounds, Process and Intermediate Products for Their Preparation and Pharmaceutical Compositions Containing Them” (SOLVAY PHARMACEUTICALS GmbH, priority 2003, published 2008):
One block for each molecule: values may come before it.

Columns and labels:
[1] = molecular target: T1, hSEP (sol hu)(his)6; His6-tagged hSEP ectodomain (Homo sapiens, UniProt Q495T6); assay: Enzymatic breakdown of CNP and VIP by hSEP and its inhibition, in vitro, HPLC; format: biochemical; details: no inhibitor, 37° C.
T1 construct: His6-tagged hSEP ectodomain; His6; purchased Innogenetics, Ghent, Belgium
T1 sequence (Q495T6 49-779 limits assumed): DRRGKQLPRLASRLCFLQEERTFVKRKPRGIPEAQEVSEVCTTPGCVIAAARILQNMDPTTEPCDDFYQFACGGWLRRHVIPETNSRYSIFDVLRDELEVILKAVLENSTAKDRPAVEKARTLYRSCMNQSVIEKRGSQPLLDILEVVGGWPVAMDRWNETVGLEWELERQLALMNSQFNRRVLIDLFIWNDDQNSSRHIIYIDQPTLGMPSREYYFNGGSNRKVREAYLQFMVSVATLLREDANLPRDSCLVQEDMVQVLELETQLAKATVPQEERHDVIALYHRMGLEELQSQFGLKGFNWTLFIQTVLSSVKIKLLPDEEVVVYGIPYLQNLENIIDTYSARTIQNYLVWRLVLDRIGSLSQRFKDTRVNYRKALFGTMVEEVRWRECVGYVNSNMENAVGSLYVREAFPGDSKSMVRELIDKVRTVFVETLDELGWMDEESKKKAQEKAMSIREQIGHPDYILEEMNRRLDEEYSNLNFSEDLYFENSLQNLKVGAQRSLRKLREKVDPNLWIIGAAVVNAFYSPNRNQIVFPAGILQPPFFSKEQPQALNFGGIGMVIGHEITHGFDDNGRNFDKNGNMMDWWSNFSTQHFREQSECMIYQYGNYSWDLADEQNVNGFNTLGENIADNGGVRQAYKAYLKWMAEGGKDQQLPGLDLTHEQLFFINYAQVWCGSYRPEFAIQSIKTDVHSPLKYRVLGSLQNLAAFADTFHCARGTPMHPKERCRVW
Experimental: The inhibition of the enzymatic breakdown of CNP and VIP by the compounds used according to the invention was measured in an enzymatic in vitro assay according to the following protocol:
All test compounds were dissolved in DMSO at 10 mM and further diluted with assay buffer.
80 μl of assay buffer, 10 μl of enzyme working solution (NEP or hSEP) and 10 μl of peptide stock solution (VIP or CNP) were mixed in an Eppendorf vial and incubated for 120 min. at 37° C. The enzymatic reaction was subsequently terminated by heating to 95° C. for 5 min. After centrifugation (Heraeus Biofuge B, 3 min) the supernatant was subjected to HPLC.
70 μl of assay buffer, 10 μl of enzyme working solution (NEP or hSEP) and 10 μl of a test compound solution were mixed in an Eppendorf vial and preincubated at 37° C. for 15 minutes. Then, 10 μl of peptide stock solution (VIP or CNP) was added and the reaction mixture was incubated at 37° C. for 60 min. to allow enzymatic hydrolysis. The enzymatic reaction was subsequently terminated by heating to 95° C. for 5 min. After centrifugation (Heraeus Biofuge B, 3 min) the supernatant was subjected to HPLC. In order to separate the remaining substrate from the cleavage products, a reversed phase HPLC technique with a CC 125/4 Nucleosil 300/5 C18 RP column and a CC 8/4 Nucleosil 100/5 C18 precolumn (Macherey-Nagel, Düren, Germany) was used. 60 μl of the reaction samples were injected into the HPLC and the column was eluted at a flow rate of 1 ml/min with the following gradient:
All peptides were detected by absorbance at 214 nm (UV spectroscopy). The percentage (=%) of hydrolysis was calculated on the basis of the peak area of the undegraded peptide for an enzyme containing sample Y in correlation to a sample containing the same concentration of peptide without enzyme (blank) by the following equation: % hydrolysis=100*(blank−Y)
Basis of the calculation of % inhibition is the peak area of the undegraded peptide (VIP or CNP) for an inhibitor containing sample X in comparison to samples containing only peptide (blank) or peptide and enzyme without inhibitor (control) according to the following equation: % inhib=100*(X−control)/(blank−control)
All samples were run in duplicate and mean values were used. A solvent control (0.1% DMSO) was added to each assay run. CNP and VIP were cleaved by NEP and hSEP in vitro.

[2] = molecular target: T2, soluble, human recombinant NEP (Homo sapiens, UniProt P08473); assay: In-vitro investigation of the NEP inhibitory action (fluorescence-quenched Big-ET-1 analogue, HPLC); format: biochemical
T2 construct: soluble, human recombinant NEP; purchased Prof; Crine, University of Montreal, Canada
T2 sequence (P08473 52-750 limits assumed): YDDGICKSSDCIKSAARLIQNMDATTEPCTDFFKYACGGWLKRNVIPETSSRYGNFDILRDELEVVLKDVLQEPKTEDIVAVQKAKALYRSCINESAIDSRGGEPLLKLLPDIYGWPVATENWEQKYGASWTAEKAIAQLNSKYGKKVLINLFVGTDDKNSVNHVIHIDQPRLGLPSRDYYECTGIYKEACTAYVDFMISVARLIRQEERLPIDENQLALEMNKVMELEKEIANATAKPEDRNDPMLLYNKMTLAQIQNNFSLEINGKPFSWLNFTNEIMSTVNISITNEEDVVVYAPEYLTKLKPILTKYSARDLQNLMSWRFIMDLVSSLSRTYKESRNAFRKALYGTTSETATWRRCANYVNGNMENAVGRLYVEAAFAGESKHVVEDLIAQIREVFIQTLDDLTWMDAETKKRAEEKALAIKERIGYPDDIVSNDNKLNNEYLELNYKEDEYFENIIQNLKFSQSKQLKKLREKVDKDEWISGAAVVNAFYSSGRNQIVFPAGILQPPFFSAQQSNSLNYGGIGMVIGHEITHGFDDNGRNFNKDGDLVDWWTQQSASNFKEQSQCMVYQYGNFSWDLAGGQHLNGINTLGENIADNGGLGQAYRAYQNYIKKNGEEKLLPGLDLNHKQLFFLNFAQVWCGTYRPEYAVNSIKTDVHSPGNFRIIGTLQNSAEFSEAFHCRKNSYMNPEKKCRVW
Outline: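 Enzyme preincubated with test substance 15 min at 37° C, then incubated with fluorescence-quenched Mca peptide substrate 60 min at 37° C and stopped by heating to 95° C. Cleaved and intact peptide separated by reversed-phase HPLC; unquenched Mca peak area (ex 328/em 393 nm) gave % inhibition versus no-compound control, duplicates, IC50 derived.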

[3] = molecular target: T3, His6-tagged hSEP ectodomain (Homo sapiens, UniProt Q495T6); assay: In vitro investigation of the hSEP-inhibitory action (fluorescence-quenched Big-ET-1 analogue, HPLC); format: biochemical
T3 construct: His6-tagged hSEP ectodomain; His6; purchased Innogenetics, Ghent, Belgium
T3 sequence (Q495T6 49-779 limits assumed): T1 sequence (Q495T6 49-779 limits assumed)
Outline: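 Performed as for the NEP assay, with HPLC analysis and 10 nM phosphoramidon as the standard inhibitor. IC50 is the compound concentration blocking 50% of hSEP enzymatic activity.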

[4] = test system: maximal SAP response to Big-ET; assay: In vivo inhibition of maximal SAP response to Big-ET in anesthetized rats after oral administration; set-up: species or system Rats (Sprague-Dawley); details: oral by gavage, 100 μmol/kg, 1 h before Big-ET challenge; mean ± standard error; negative = inhibition
Experimental: Rats (Sprague-Dawley, CRLD=Charles River) were anaesthetised with 1 ml/kg Rompun/Ketavet 1:1. A pressure transducer (Statham) was inserted into the carotid artery to measure blood pressure.
For oral testing, the substances (or vehicle) were given by gavage at doses of 100 μmol/kg each, 1 h before the Big-ET challenge, and blood pressure and heart rate were monitored as described above.
The inhibition of maximal SAP response to Big-ET in anesthetized rats following oral administration of the test substances of Formula I is set forth in the following Table 3c: […]
Data given in table 3c as negative values indicate an inhibitory effect. Values are means from 3-6 independent series of experiments ±standard error.

[5] = Plasma protein binding, equilibrium dialysis, rat plasma; format: in vitro ADME; details: rat plasma (10% for routine testing), 37° C., pH 7.4, 10% plasma (100% for low binders), read-out: % bound (rat plasma) (converted)
Experimental: (§1) Plasma protein binding of the test substances of Formula I was measured using a validated equilibrium dialysis method. The dialysis cells consisted of two halves separated by a semi-permeable membrane slightly tensioned in between. […] Before being used, the membranes were re-hydrated by soaking in water followed by the dialysis buffer. Plasma (10% for routine testing, and 100% for compounds found to have a low protein binding) was heated to 37° C. and adjusted to pH 7.4 before use. 5 μM test compound solutions (final dimethylsulfoxide concentration 0.5%) were prepared in isotonic phosphate buffer containing rat or human plasma. The plasma-containing solution was on one side of the membrane, and the plasma-free on the other. Incubations were performed overnight (10% plasma assay), or for 2 hours (100% plasma assay) in triplicate. The cells were mounted in a drive unit that rotated the cells and ensured a uniform equilibrium was obtained. The equilibrium was temperature controlled by the drive unit being immersed in a water bath at 37° C. At the end of the equilibration time, the cells were emptied. The solutions for each batch of compounds were combined into two groups (plasma-free and plasma-containing) then cassette analysed by LC-MS/MS using two sets of calibration standards for plasma-free (7 points) and plasma-containing solutions (6 points). The percentage of protein bound compound was calculated as follows: [formula] PC=sample concentration in protein containing side; PF=sample concentration in protein free side;

[6] = Plasma protein binding, equilibrium dialysis, human plasma; format: in vitro ADME; details: human plasma (10% for routine testing), 37° C., pH 7.4, 10% plasma (100% for low binders), read-out: % bound (human plasma) (converted)
Experimental: as §1

breakdown of VIP by hSEP, degradation at t = 2 h [1]: 36%
Molecule: VIP: vasoactive intestinal peptide, substrate of NEP and hSEP; supplier Bachem [reference compound]

breakdown of CNP by hSEP, degradation at t = 2 h [1]: 46%
Molecule: CNP: c-type natriuretic peptide, CNP (32-53), substrate of NEP and hSEP; supplier Bachem [reference compound]

IC50 [2]: 16 nM
IC50 [3]: 3 nM
fraction unbound at 5 μM [5]: 0.73
fraction unbound at 5 μM [6]: 0.66
Molecule: CCN(CCCN)C(=O)CC(CC1(C(=O)NC2CCc3ccccc3N(CC(=O)O)C2=O)CCCC1)C(=O)O (stereo not shown) [Example 80, 4-[(3-aminopropyl)(ethyl)amino]-2-{[1-({[1-(carboxymethyl)-2-oxo-2,3,4,5-tetrahydro-1H-1-benzazepin-3-yl]amino}carbonyl)cyclopentyl]methyl}-4-oxobutanoic acid]
% substance-related inhibition of the maximum Big-ET effect on SAP vs. control [4]: −43 ± 5%
